Laboratory results reported in ChEMBL document CHEMBL5620412, “Discovery of benzofuran-2-carboxylic acid derivatives as lymphoid tyrosine phosphatase (LYP) inhibitors for cancer immunotherapy” (Eur J Med Chem, 2023).

How the values were obtained:
[1] = (§1) Selectivity ratio of IC50 for inhibition of N-terminal His-tagged PTP1B catalytic domain (1 to 294 residues) (unknown origin) expressed in Escherichia coli BL21 (DE3) cells to IC50 for inhibition of N-terminal His-tagged LYP catalytic domain (1 to 294 residues) (unknown origin) expressed in Escherichia coli BL21 (DE3) cells using pNPP as substrate
[2] = as §1, with “SSH2” for “PTP1B”
[3] = as §1, with “PTPN5” for “PTP1B”
[4] = target: T1, Protein phosphatase Slingshot homolog 2 (Homo sapiens, UniProt Q76I76); assay: Inhibition of N-terminal His-tagged SSH2 catalytic domain (1 to 294 residues) (unknown origin) expressed in Escherichia coli BL21 (DE3) cells
T1 sequence (Q76I76 whole entry): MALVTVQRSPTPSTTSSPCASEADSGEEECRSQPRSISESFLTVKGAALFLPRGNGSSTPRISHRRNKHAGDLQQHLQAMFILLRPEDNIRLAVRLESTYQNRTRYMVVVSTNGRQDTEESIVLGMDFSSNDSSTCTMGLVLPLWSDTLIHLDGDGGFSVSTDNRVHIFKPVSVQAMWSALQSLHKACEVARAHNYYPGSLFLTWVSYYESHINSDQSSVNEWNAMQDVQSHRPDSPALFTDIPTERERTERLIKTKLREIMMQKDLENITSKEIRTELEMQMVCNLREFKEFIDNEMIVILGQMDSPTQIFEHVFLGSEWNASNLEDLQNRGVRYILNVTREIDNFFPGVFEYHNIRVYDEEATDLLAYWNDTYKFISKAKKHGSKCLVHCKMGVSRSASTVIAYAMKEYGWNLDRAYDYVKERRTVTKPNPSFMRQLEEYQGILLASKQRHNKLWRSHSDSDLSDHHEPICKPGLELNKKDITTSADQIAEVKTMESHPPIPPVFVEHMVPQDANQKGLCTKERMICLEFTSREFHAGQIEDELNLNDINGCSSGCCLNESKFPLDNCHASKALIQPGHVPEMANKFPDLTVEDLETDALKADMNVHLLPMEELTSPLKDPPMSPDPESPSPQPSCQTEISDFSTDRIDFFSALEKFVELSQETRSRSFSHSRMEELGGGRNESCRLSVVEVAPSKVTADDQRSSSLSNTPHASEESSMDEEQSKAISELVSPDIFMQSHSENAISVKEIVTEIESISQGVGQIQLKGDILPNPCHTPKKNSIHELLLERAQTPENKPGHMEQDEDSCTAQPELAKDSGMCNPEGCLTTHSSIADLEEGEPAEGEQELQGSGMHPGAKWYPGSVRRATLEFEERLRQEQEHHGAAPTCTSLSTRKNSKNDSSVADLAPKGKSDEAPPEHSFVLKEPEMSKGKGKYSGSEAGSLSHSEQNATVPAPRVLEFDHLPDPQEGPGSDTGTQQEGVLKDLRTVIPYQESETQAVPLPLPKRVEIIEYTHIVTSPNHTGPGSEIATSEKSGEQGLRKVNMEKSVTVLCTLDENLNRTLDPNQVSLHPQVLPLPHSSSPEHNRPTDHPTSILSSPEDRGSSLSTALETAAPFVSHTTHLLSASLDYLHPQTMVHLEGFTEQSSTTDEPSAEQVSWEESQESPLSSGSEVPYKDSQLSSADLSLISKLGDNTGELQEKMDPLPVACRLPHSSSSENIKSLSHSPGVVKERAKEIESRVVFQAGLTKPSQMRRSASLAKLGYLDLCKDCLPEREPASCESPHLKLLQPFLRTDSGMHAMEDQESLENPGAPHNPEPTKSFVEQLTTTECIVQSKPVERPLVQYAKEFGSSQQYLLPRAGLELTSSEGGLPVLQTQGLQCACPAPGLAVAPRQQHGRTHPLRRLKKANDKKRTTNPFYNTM

[5] = target: T2, Tyrosine-protein phosphatase non-receptor type 5 (Homo sapiens, UniProt P54829); assay: Inhibition of N-terminal His-tagged PTPN5 catalytic domain (1 to 294 residues) (unknown origin) expressed in Escherichia coli BL21 (DE3) cells
T2 sequence (P54829 whole entry): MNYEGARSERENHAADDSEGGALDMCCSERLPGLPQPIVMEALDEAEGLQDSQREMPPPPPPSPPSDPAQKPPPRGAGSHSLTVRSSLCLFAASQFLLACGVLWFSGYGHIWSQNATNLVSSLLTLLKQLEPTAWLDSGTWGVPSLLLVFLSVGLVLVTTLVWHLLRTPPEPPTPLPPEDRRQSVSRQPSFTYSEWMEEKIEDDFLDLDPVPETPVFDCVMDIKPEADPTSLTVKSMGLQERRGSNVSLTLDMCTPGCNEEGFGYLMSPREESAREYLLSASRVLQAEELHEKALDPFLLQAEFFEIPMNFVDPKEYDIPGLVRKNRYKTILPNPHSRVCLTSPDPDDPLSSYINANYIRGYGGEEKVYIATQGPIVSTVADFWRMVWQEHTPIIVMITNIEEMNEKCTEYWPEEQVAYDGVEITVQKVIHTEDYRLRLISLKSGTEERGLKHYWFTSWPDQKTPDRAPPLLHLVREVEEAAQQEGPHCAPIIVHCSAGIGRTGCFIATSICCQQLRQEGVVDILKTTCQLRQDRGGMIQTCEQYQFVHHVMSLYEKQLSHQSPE

| IC50 [4] | IC50 [5] | SMILES | Ratio IC50 [1] | Ratio IC50 [2] | Ratio IC50 [3] |
| --- | --- | --- | --- | --- | --- |
| > 20 µM | > 20 µM | O=C(O)c1cc2cc(N(Cc3ccc(-c4ccccc4)cc3)S(=O)(=O)c3ccc(-c4cccc(O)c4)cc3)ccc2o1 | 1.8 | > 5.5 | > 5.5 |
| > 20 µM | > 20 µM | COc1ccc(-c2ccc(CN(c3ccc4oc(C(=O)O)cc4c3)S(=O)(=O)c3ccc(Cl)c([N+](=O)[O-])c3)cc2)cc1 | – | – | – |
| > 20 µM | > 20 µM | CC(=O)C1=C(C)N=c2s/c(=C/c3ccc(OCc4ccc(C(=O)O)cc4)cc3)c(=O)n2C1c1ccc(N(C)C)cc1 (stereo not given) | 1.2 | – | – |

Continued, compound first:

| SMILES | IC50 [4] | IC50 [5] | Ratio IC50 [1] | Ratio IC50 [2] | Ratio IC50 [3] |
| --- | --- | --- | --- | --- | --- |
| O=C(O)c1cc2cc(N(Cc3cccc(-c4ccccc4)c3)S(=O)(=O)c3ccc(-c4ccccc4)cc3)ccc2o1 | > 20 µM | > 20 µM | 1.8 | > 5.5 | > 5.5 |
| O=C(O)c1cc2cc(N(Cc3ccc(OCc4ccccc4)cc3)S(=O)(=O)c3ccc(-c4ccccc4)cc3)ccc2o1 | > 20 µM | > 20 µM | > 3.5 | > 5.5 | > 3.5 |
